# Data as given in ChEMBL document CHEMBL1201862, “PubChem BioAssay data set” (2004).
# Active and inactive are the calls of the source.
# How the values were obtained:
# [1] = target: ADP-ribosylation factor GTPase-activating protein 1 (Rattus norvegicus, UniProt Q62848); assay: Fluorescence polarization-based biochemical high throughput dose response screening assay to identify inhibitors of ADP-ribosylation factor GTPase activating protein 1 (ARFGAP1).; assay type: functional
# [2] = nonselective StAR promoter luciferase inhibitors – cell-based, luminescence, luciferase reporter, counter-screen for LRH-1 inverse agonist project, dose response (AID 651969); assay type: functional
# [3] = target: Nuclear receptor subfamily 5 group A member 2 (Homo sapiens, UniProt O00482); assay type: functional, cell-based;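 note: HEK293T cells transfected with LRH-1 and a StAR promoter luciferase reporter; potency for inhibitors that lower LRH-1 driven reporter light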
# Chain of Nuclear receptor subfamily 5 group A member 2 (O00482 whole entry): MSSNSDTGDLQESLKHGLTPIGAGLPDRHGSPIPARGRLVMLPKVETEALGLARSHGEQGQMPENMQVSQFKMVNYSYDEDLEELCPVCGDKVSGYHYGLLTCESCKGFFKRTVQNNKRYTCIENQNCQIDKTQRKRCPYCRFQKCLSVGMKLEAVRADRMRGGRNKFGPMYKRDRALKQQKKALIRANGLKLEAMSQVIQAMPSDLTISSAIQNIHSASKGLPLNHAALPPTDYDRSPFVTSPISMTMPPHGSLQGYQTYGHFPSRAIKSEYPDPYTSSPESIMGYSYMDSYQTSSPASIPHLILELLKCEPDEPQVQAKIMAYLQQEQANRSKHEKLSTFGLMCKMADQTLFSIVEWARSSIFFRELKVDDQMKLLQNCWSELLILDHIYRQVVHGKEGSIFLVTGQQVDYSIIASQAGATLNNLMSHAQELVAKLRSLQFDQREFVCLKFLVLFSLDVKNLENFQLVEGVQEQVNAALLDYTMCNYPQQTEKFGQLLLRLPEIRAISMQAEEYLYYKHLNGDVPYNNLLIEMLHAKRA
# Steroidogenic factor 1 = Steroidogenic factor 1 (Homo sapiens, UniProt Q13285); assay: Counterscreen for inverse agonists of the liver receptor homolog-1 (LRH-1; NR5A2): Luminescence-based cell-based high throughput dose response assay to identify inverse agonists of the Steroidogenic Factor 1 Nuclear Receptor (SF1; NR5A1).; assay type: functional
# Chain of Steroidogenic factor 1 (Q13285 whole entry): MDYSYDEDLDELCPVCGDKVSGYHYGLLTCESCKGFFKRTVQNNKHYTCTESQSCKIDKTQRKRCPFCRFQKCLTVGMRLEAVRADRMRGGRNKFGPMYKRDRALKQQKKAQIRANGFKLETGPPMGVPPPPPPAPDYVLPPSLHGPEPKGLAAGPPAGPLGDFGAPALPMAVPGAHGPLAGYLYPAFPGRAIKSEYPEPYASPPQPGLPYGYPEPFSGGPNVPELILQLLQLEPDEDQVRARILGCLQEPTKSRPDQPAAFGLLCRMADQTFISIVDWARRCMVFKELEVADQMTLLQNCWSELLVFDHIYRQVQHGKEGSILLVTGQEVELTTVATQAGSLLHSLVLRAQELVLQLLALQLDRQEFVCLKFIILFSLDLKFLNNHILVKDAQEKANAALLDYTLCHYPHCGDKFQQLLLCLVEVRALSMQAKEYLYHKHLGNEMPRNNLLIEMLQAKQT
# [4] = Trypanosoma cruzi growth suppression in host cells – NIH3T3 host cells, beta-gal luminescence, confirmation (AID 2044); assay type: functional, cell-based;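 note: intracellular parasites grown in NIH/3T3 mouse fibroblasts as host cells; luminescent beta-galactosidase reporter signal from transgenic T. cruzi replicating inside host cells; inhibitors lower the luminescence signal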
# INS1 = assay: INS-1E survival protection against cytokine death – cell-based, luminescence, retest, dose response (AID 449756); assay type: functional; settings: Rattus norvegicus;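 note: cell death triggered by IL-1 beta plus TNF-alpha plus IFN-gamma mixture; protective hits raise ATP signal compared with cytokine alone wells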
# [5] = NIH3T3 cell viability loss – ATP luminescence, mouse fibroblasts, counter-screen, dose response (AID 2010); assay type: functional, cell-based;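 note: cells exposed to compound for about 90 hours before reading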
# Protein Wnt-3a = Protein Wnt-3a (Mus musculus, UniProt P27467); assay: antagonism of Wnt3a pathway luciferase reporter – Wnt-LIGHT cells, luminescence, selectivity assay for Gli-SUFU antagonist project, dose response (AID 651570); assay type: functional; settings: read-out: IC50_Mean;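 note: Wnt-LIGHT reporter cells stimulated with conditioned medium from Wnt3a-producing cells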
# Chain of Protein Wnt-3a (P27467 whole entry): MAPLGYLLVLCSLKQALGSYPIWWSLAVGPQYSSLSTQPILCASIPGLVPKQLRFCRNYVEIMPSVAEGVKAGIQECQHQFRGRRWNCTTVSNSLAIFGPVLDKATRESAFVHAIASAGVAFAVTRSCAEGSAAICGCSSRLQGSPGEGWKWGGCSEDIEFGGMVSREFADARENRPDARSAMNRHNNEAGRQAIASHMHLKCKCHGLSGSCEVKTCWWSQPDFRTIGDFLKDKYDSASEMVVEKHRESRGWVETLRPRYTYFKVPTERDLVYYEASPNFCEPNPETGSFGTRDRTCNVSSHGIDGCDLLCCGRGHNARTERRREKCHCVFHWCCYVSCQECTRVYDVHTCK
# [6] = target: DNA repair and recombination protein RAD54-like (Homo sapiens, UniProt Q92698); assay: RAD54 Holliday junction migration blockers – biochemical, fluorescence, cherry-picked samples, dose series, confirmation (AID 651657); assay type: functional
# Chain of DNA repair and recombination protein RAD54-like (Q92698 whole entry): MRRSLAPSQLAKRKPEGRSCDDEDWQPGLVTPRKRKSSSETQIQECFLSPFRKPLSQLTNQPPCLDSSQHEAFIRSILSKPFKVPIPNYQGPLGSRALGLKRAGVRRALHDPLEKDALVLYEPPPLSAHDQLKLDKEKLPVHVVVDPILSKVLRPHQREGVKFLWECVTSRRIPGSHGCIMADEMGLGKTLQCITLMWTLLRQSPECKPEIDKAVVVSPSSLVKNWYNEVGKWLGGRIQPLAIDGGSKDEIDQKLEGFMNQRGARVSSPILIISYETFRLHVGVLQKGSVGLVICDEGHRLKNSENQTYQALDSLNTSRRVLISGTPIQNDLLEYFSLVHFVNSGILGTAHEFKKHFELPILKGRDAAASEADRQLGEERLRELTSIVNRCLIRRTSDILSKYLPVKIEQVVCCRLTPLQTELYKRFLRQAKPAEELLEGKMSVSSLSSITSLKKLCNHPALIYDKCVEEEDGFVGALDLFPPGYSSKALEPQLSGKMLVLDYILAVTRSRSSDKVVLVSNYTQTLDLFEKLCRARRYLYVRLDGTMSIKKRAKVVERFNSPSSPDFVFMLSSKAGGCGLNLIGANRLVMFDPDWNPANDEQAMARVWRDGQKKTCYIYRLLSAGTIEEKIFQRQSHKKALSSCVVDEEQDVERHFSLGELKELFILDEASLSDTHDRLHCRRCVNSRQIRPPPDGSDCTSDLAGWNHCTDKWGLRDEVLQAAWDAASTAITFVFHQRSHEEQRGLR
# [7] = target: T1, DNA repair protein RAD52 homolog (Homo sapiens, UniProt P43351); assay type: functional, biochemical
# T1 sequence (P43351 whole entry): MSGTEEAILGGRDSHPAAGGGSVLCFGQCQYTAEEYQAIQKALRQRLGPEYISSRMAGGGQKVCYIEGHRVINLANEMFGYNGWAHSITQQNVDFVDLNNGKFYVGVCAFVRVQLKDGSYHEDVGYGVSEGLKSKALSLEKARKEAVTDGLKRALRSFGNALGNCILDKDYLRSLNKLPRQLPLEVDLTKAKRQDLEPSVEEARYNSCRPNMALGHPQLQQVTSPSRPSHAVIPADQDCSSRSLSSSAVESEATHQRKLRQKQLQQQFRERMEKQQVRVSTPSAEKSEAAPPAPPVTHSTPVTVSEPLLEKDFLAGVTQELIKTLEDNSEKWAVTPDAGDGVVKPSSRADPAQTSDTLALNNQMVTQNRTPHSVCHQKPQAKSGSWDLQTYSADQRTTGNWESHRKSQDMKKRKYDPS
# [8] = microbe, parasite or virus in culture; assay type: functional; settings: Mycobacterium tuberculosis
# [9] = target: DNA (cytosine-5)-methyltransferase 1 (Homo sapiens, UniProt P26358); assay: inhibition of DNA methylation by DNMT1 – biochemical, fluorescent molecular beacon, confirmation (AID 602386); assay type: functional
# Chain of DNA (cytosine-5)-methyltransferase 1 (P26358 whole entry): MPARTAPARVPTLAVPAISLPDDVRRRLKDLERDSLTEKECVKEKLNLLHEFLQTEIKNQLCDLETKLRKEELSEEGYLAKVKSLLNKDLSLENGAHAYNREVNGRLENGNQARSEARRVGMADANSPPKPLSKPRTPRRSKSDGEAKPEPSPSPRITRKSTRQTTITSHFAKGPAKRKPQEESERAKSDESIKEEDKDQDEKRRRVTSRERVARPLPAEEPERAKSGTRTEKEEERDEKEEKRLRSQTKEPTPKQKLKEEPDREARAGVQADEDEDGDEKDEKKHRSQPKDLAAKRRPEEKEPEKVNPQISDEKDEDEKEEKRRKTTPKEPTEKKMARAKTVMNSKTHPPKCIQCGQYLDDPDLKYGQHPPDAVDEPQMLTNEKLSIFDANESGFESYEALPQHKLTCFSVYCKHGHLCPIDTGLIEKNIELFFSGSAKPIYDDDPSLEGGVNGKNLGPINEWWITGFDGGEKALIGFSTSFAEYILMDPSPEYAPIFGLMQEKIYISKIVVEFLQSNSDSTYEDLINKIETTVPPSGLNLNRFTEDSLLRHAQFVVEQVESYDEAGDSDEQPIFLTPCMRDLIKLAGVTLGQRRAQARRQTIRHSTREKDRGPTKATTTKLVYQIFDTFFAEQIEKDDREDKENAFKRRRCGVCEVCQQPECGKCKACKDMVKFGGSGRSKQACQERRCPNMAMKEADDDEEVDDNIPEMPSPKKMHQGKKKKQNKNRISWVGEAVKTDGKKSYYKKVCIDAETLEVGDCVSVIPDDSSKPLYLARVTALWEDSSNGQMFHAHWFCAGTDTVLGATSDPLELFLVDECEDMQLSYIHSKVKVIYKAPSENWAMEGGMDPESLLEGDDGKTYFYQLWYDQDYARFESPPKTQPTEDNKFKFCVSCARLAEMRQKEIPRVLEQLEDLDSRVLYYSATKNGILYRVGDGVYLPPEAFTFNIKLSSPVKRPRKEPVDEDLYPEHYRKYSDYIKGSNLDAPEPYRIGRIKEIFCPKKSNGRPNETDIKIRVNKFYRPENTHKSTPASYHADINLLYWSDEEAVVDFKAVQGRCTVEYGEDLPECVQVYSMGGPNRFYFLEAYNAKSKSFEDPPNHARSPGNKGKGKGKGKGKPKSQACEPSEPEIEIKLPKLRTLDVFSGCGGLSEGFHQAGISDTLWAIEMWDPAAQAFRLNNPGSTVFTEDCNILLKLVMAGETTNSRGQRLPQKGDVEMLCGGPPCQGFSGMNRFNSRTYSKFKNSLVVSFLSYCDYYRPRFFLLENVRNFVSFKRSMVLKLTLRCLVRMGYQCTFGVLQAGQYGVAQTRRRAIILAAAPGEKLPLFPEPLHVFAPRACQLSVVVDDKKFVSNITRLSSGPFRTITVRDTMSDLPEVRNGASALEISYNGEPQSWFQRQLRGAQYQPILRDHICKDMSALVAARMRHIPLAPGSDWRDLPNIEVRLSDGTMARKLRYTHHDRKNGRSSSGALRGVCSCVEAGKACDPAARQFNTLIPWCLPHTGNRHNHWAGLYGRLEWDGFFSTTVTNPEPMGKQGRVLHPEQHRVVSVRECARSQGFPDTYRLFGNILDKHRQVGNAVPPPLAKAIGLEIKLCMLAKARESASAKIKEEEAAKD
# [10] = viability of PTEN-deleted HCT116 cells – cell-based, HCT116 PTEN knockout, dose response (AID 1047); assay type: functional;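 note: HCT116 colon tumor cells with PTEN knocked out; cells exposed to compound for 60 hours before readout; potency for loss of cell viability measured by luminescence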
# [11] = target: T2, Ubiquitin-conjugating enzyme E2 N (Homo sapiens, UniProt P61088); assay type: functional;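 note: Dose-response confirmation in a TR-FRET assay detecting UBC13-driven polyubiquitin chain formation, inhibition measured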
# T2 sequence (P61088 whole entry): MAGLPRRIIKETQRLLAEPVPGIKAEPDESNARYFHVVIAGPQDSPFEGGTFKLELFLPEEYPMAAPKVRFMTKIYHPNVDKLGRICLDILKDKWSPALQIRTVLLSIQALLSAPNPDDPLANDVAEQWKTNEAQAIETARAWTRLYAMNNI
# [12] = decrease of insulin promoter-GFP reporter – imaging, high-content screening, mouse beta cells (AID 1628); assay type: functional; settings: MIN6
# [13] = MIN6 cell viability loss – mouse insulinoma, cytotoxicity control, dose response (AID 2122); assay type: functional;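 note: confirmatory high-throughput counterscreen run to flag cytotoxic compounds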
# [14] = viability of HCT116 lacking mutant beta-catenin – cell-based, human colon tumor, dose response (AID 1045); assay type: functional;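 note: HCT116 colon tumor cells with beta catenin knocked out; cells exposed to compound for 60 hours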
# [15] = target: Tyrosine-protein phosphatase non-receptor type 11 (Homo sapiens, UniProt Q06124); assay: PTPN11 enzyme inhibitors – biochemical, selectivity assay for STEP inhibitor project, dose response (AID 602367); assay type: functional; settings: read-out: IC50_Mean
# Chain of Tyrosine-protein phosphatase non-receptor type 11 (Q06124 whole entry): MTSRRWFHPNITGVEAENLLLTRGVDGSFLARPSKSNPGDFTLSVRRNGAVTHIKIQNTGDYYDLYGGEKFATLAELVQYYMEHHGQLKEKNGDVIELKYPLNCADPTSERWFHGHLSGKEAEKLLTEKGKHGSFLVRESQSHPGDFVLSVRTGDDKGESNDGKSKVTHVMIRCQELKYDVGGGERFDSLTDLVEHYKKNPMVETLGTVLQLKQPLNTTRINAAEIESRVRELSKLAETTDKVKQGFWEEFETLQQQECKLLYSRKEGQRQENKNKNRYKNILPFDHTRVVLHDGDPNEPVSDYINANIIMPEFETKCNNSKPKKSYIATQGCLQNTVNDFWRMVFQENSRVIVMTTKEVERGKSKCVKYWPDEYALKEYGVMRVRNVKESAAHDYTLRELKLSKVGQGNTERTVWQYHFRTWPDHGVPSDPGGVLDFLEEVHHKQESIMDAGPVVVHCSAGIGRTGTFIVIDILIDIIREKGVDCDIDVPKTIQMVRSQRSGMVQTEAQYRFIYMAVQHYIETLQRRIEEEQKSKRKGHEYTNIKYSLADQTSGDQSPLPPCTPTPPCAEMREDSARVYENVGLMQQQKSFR
# [16] = target: Dual specificity protein phosphatase 3 (Homo sapiens, UniProt P51452); assay: VHR phosphatase inhibition, dose response, selectivity assay for STEP inhibitor project, biochemical (AID 602374); assay type: functional; settings: read-out: IC50_Mean
# Chain of Dual specificity protein phosphatase 3 (P51452 whole entry): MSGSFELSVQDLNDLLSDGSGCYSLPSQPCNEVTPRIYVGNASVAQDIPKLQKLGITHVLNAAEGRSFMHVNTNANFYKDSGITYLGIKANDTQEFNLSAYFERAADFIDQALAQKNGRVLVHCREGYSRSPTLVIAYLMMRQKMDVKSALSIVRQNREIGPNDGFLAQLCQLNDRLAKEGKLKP
# [17] = target: Tyrosine-protein phosphatase non-receptor type 5 (Homo sapiens, UniProt P54829); assay: PTPN5 enzyme inhibition – biochemical, fluorescence intensity, uHTS hits, confirmation (AID 602372); assay type: functional; settings: read-out: IC50_Mean
# Insulin-degrading enzyme [18] = target: T3, Insulin-degrading enzyme (Homo sapiens, UniProt P14735); assay: cellular IDE activation of Abeta substrate cleavage – fluorescence polarization, HEK cells, dose response (AID 588439); assay type: functional, cell-based
# T3 sequence (P14735 whole entry): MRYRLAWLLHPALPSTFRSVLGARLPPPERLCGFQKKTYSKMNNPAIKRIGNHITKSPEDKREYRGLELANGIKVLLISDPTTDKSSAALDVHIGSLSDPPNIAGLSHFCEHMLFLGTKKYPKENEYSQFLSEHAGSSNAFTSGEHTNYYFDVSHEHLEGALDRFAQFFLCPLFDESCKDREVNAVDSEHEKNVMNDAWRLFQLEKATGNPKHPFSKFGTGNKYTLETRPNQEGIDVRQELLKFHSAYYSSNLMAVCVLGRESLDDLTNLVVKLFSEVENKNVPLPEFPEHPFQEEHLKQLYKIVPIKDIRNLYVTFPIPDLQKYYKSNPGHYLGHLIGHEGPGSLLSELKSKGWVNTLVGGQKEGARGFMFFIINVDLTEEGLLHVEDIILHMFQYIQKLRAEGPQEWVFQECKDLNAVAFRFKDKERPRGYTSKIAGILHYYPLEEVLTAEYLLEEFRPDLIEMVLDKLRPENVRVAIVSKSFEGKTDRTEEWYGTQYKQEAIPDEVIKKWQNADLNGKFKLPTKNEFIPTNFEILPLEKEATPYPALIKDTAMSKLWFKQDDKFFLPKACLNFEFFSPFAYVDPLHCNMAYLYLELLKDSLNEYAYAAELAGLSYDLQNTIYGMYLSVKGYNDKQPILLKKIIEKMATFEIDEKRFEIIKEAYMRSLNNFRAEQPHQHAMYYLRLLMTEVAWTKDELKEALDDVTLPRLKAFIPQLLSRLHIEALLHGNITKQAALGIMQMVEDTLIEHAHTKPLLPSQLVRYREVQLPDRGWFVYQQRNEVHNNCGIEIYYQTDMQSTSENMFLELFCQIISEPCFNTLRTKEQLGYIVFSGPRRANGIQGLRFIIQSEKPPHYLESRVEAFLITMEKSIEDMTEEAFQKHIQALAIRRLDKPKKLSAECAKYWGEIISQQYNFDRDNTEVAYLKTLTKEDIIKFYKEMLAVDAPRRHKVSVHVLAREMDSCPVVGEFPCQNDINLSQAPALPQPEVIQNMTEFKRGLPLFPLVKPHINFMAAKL
# HEK293 [19] = assay: membrane integrity loss in HEK cells – cell-based, fluorescence, cytotoxicity control for IDE activator project, dose response (AID 588440); assay type: functional; settings: Homo sapiens;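 note: cytotoxicity by LDH release measuring loss of membrane integrity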
# Insulin-degrading enzyme [20] = target: T3, Insulin-degrading enzyme; assay: recombinant IDE activation, cell-free – biochemical, fluorescence polarization, counter-screen for IDE activator project, dose response (AID 588681)
# HEK293 [21] = assay: optical interference in Abeta FP readout, dose response, artefact control for IDE activator project, biochemical, fluorescence polarization (AID 588442); assay type: functional, cell-based; settings: Homo sapiens
# [22] = target: T4, Carboxy-terminal domain RNA polymerase II polypeptide A small phosphatase 1 (Homo sapiens, UniProt Q9GZU7); assay: CTDSP1 inhibitors, concentration-response, biochemical, absorbance readout, ultra-high-throughput screen actives (AID 540297); assay type: functional
# T4 sequence (Q9GZU7 whole entry): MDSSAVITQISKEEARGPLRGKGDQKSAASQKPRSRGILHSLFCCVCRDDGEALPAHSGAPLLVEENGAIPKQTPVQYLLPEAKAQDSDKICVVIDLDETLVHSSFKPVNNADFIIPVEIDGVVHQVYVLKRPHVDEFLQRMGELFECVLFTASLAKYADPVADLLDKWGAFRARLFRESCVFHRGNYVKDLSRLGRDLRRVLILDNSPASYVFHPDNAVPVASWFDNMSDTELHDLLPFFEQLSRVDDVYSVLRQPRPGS
# [23] = target: T5, Rac GTPase-activating protein 1 (Homo sapiens, UniProt Q9H0H5); assay: blockers of MgcRacGAP-driven Rac1 GTP hydrolysis – biochemical, ADP Hunter fluorescence, primary and confirmatory, confirmation (AID 624330); assay type: functional
# T5 sequence (Q9H0H5 whole entry): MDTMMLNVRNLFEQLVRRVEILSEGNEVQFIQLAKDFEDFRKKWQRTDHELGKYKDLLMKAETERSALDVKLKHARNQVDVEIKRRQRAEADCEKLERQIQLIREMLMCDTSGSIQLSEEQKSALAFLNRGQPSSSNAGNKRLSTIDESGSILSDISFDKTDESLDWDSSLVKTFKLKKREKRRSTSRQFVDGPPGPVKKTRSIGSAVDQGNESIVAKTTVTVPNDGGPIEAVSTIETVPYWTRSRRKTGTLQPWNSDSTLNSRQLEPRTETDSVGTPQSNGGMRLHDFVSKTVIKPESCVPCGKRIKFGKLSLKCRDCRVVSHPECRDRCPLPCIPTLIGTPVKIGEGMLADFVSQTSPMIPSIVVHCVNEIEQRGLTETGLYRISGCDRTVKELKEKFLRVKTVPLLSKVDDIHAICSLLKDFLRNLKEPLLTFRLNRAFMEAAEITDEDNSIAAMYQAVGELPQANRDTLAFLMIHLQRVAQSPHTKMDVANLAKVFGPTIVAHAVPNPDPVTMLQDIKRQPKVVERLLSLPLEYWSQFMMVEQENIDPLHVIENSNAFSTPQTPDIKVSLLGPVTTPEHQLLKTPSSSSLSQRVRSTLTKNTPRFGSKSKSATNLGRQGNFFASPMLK
# Chain of ADP-ribosylation factor GTPase-activating protein 1 (Q62848 whole entry): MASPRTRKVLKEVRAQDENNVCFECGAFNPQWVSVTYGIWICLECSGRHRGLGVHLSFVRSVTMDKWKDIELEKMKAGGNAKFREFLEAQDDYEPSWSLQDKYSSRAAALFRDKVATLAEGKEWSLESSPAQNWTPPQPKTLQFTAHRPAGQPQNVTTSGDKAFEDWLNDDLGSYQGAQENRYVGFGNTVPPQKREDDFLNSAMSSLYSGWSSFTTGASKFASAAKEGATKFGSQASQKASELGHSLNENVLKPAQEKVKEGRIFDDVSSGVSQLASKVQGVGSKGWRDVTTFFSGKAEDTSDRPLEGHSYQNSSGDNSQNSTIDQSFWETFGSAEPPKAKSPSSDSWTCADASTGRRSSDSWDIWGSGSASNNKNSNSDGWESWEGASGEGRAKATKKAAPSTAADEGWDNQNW
smiles,measurement,setting,value
Cc1cc(NS(=O)(=O)c2ccc(NC(=S)NC(=O)c3cccc(S(=O)(=O)N(C)C)c3)cc2)no1,IC50,[1],46.6 µM (inactive)
O=C(COC(=O)c1ccc[n+]([O-])c1)Nc1ccc([N+](=O)[O-])cc1Cl,IC50,[2],35.9 µM (inactive)
same,IC50,[3],3.98 µM (active)
same,IC50,Steroidogenic factor 1,4.98 µM (active)
Cc1cc(/C=C2/SC(=S)N(c3ccc([N+](=O)[O-])cc3)C2=O)c(C)n1-c1cccnc1,EC50,[4],915 nM (active)
same,AC50,INS1,862 nM (active)
same,EC50,[5],> 60 µM (inconclusive)
same,IC50,Protein Wnt-3a,8.94 µM (active)
Cc1c(OCC(=O)NC2CC(C)(C)NC(C)(C)C2)ccc2c1oc(=O)c1ccccc12,AC50,[6],22.4 µM (active)
same,AC50,[7],27.1 µM (active)
CCN(CC)CCCNc1nc2cc(OC)c(OC)cc2c2nc(-c3ccccc3)nn12,AC50,[6],2.03 µM (active)
same,CC50,[8],19.9 µM (active)
same,IC50,[9],> 99 µM (inactive)
same,EC50,[10],7.1 µM (active)
same,EC50,[4],709 nM (active)
same,IC50,[11],> 20 µM (inactive)
same,IC50,[12],1.11 µM (active)
same,IC50,[13],2.07 µM (active)
same,EC50,[5],12 µM (active)
same,EC50,[14],4.58 µM (active)
CC(C)OCCCN=C(S)Nc1ccc(S(N)(=O)=O)cc1,IC50,[15],771 nM (active)
same,IC50,[16],1.08 µM (active)
same,IC50,[17],53 µM (inactive)
CC(C)CN(C(=O)COC(=O)c1ccc(Br)cc1)c1c(N)n(Cc2ccccc2)c(=O)[nH]c1=O,EC50,Insulin-degrading enzyme [18],> 54.7 µM (inactive)
same,IC50,HEK293 [19],13.4 µM (inactive)
same,EC50,Insulin-degrading enzyme [20],> 54.7 µM (inactive)
same,EC50,HEK293 [21],> 55.9 µM (inactive)
Cc1cc(O)nc(SCC(=O)/C=C2\N(C)c3ccccc3C2(C)C)n1,IC50,Protein Wnt-3a,50 µM (inactive)
C/C=C/C=C/C(=O)C1=C(O)[C@]2(C)C(=O)C(C)(O)[C@H]1[C@H]([C@]1(C)OC(O)=C(C)C1=O)[C@H]2C(=O)/C=C/C=C/C (some centres undefined),IC50,[9],5.25 µM (active)
same,IC50,[22],5.92 µM (active)
same,IC50,[23],122 µM (active)
COc1ccccc1Oc1nnnn1-c1ccc(C(N)=O)cc1,IC50,[2],35.9 µM (inactive)
same,IC50,[3],35.9 µM (inactive)
same,IC50,Steroidogenic factor 1,7.85 µM (active)
COCCCn1c(C)cc(C(=O)CN2c3cccc4cccc(c34)S2(=O)=O)c1C,IC50,[1],60.2 µM (inactive)
CCOC(=O)C1(CC2CC2)CCN(Cc2cnc(N(C)C)s2)CC1,EC50,Insulin-degrading enzyme [18],> 54.7 µM (inactive)
same,IC50,HEK293 [19],> 89.3 µM (inactive)
same,EC50,Insulin-degrading enzyme [20],> 54.7 µM (inactive)
same,EC50,HEK293 [21],> 56 µM (inactive)
